From patent US20080194545A1, “ANTIMICROBIAL COMPOSITIONS AND METHODS OF USE” (TRIUS THERAPEUTICS, priority 2007, published 2008)
pIC50: −log10 of the molar value.

Columns and labels:
S. aureus = test: Antibacterial activity, minimal inhibitory concentration (MIC) against S. aureus; assay type: cell-based; conditions: Staphylococcus aureus
Excerpt: Antibacterial activity as measured by the minimal inhibitory concentrations (MIC) and minimal bactericidal concentrations of compounds are well known (see., e.g., National Committee for Clinical Laboratory Standards 2000 Performance standards for antimicrobial disk susceptibility tests: approved standard, 7th ed. M2-A7, vol. 20, no. 1, Committee for Clinical Laboratory Standards, Wayne, Pa.)
In vitro testing for antibacterial activity may be accomplished through use of a whole-cell bacterial growth inhibition assay. For example, an […] assay identifies a substance that inhibits bacterial growth. Microtiter plates are prepared with serial dilutions of the test compound, adding to the preparation a given amount of growth substrate, and providing a preparation of bacteria. Inhibition of bacterial growth is determined, for example, by observing changes in optical densities of the bacterial cultures. Inhibition of bacterial growth is determined, for example, by comparing (in the presence and absence of a test compound) the rate of growth or the absolute growth of bacterial cells. Inhibition includes a reduction of one of the above measurements by at least 20%.

S. Aureus MetRS = S. Aureus MetRS (Staphylococcus aureus, UniProt Q5HII6); test: MetRS inhibition (coupling of radiolabeled methionine to tRNAMet, TCA-precipitable counts); assay type: biochemical; conditions: purified MetRS enzyme
S. Aureus MetRS, sequence (Q5HII6 whole entry): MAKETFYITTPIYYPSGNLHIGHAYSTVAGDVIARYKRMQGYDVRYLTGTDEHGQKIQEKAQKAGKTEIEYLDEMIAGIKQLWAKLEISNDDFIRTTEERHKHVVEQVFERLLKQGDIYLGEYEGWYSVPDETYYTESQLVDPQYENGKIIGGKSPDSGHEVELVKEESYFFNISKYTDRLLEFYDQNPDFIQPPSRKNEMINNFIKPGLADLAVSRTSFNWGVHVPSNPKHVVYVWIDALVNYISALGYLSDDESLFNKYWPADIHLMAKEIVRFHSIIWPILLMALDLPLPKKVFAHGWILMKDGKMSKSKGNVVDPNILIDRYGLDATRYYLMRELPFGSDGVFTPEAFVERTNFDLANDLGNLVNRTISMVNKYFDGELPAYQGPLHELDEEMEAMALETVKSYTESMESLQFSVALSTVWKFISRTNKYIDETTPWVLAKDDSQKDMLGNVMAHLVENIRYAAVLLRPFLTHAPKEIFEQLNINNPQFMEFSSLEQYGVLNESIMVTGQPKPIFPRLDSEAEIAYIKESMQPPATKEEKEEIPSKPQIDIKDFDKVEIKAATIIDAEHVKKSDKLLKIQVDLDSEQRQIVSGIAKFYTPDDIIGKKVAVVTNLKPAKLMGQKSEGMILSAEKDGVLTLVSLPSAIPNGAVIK
Excerpt: The inhibition of MetRS activity may be monitored through use of in vitro bio-chemical assays through use of purified MetRS protein. Synthesis of a MetRS polypeptide can readily be accomplished through use of any of the various art-known techniques. For instance, a MetRS polypeptide can be synthesized chemically in vitro or recombinant DNA methods which are well known to those skilled in the art can be used to construct expression vectors containing MetRS coding sequences, and appropriate transcriptional/translational control signals. These methods include, for example, in vitro recombinant DNA techniques, synthetic techniques and in vivo recombination/genetic recombination. Alternatively, RNA capable of encoding target gene protein sequences can be chemically synthesized through use of synthesizers, for example.
The compounds of the present invention may also be evaluated for the ability to inhibit MetRS activity through use of known methods that measure the MetRS-dependent coupling of methionine to its cognate tRNA. In the assay, radiolabeled methionine, tRNA^Met and purified MetRS enzyme are incubated under appropriate conditions in the presence and absence of test compound and the amount of TCA-precipitable counts, which reflects the amount of methionine coupled to tRNA^Met, is determined.

| Compound | MIC (S. aureus) | pIC50 (S. Aureus MetRS) |
| --- | --- | --- |
| COc1cc(Cl)c(Oc2cc(NCc3nc4ccccc4[nH]3)nc(N3CCN(CCCN4CCOCC4)CC3)n2)cc1OC [Compound 6.94] | ≤ 8 µg/mL | > 7.30 |
| COc1ccc(Oc2cc(NCc3nc4ccccc4[nH]3)nc(N3CCNC(=O)C3)n2)c(Cl)c1 [Compound 6.30] | ≤ 8 µg/mL | > 7.30 |
| COc1cc(Cl)c(Oc2cc(NCc3nc4ccccc4[nH]3)nc(N3CCN(c4ncncn4)CC3)n2)cc1OC [Compound 6.105] | ≤ 8 µg/mL | > 7.30 |
| O=C1CN(c2nc(NCc3nc4ccccc4[nH]3)cc(Oc3ccc(Cl)cc3Cl)n2)CCN1 [Compound 6.23] | ≤ 8 µg/mL | > 7.30 |
| COc1cc(Cl)c(Oc2cc(NCc3nc4ccccc4[nH]3)nc(N3CCN(C(=O)CNc4nccs4)CC3)n2)cc1OC [Compound 6.126] | ≤ 8 µg/mL | > 7.30 |
| COc1cc(Cl)c(Oc2cc(NCc3nc4ccccc4[nH]3)nc(N3CCNC(=O)C3)n2)cc1OC [Compound 6.56] | ≤ 8 µg/mL | > 7.30 |
| COc1ccc(Oc2cc(N3CCCC3CO)nc(NCc3nc4ccccc4[nH]3)n2)c(Cl)c1 (centres unmarked) [Compound 5.51] | ≤ 8 µg/mL | > 7.30 |
| COc1cc(Cl)c(Oc2cc(NCc3nc4ccccc4[nH]3)nc(N3CCC(CN4CCCC4=O)CC3)n2)cc1OC [Compound 6.145] | ≤ 8 µg/mL | > 7.30 |
| COc1ccc(Oc2cc(N3CC(C)NC(C)C3)nc(NCc3nc4ccccc4[nH]3)n2)c(Cl)c1 (centres unmarked) [Compound 5.26] | ≤ 8 µg/mL | > 7.30 |
| COc1ccc(Oc2cc(NCc3nc4ccccc4[nH]3)nc(N3CCN(C(=O)N(C)C)CC3)n2)c(Cl)c1 [Compound 6.49] | ≤ 8 µg/mL | > 7.30 |
| COc1cc(Cl)c(Oc2cc(NCc3nc4ccccc4[nH]3)nc(N3CCN(CCn4ccnc4)CC3)n2)cc1OC [Compound 6.113] | ≤ 8 µg/mL | > 7.30 |
| COc1ccc(Oc2cc(N(C)C)nc(NCc3nc4ccccc4[nH]3)n2)c(Cl)c1 [Compound 5.10] | ≤ 8 µg/mL | > 7.30 |
| COc1ccc(Oc2cc(N3CCN(C(=O)c4ccco4)CC3)nc(NCc3nc4ccccc4[nH]3)n2)c(Cl)c1 [Compound 5.50] | ≤ 8 µg/mL | > 7.30 |
| COc1ccc(Oc2cc(NCc3nc4ccccc4[nH]3)nc(N3CCN(C(=O)C4CCCO4)CC3)n2)c(Cl)c1 (centres unmarked) [Compound 6.61] | ≤ 8 µg/mL | > 7.30 |
| COc1cc(Cl)c(Oc2cc(NCc3nc4ccccc4[nH]3)nc(N3CCN(C(C)=O)CC3)n2)cc1OC [Compound 6.55] | ≤ 8 µg/mL | > 7.30 |
| COc1cc(Cl)c(Oc2cc(NCc3nc4ccccc4[nH]3)nc(N3CCCN(C(C)=O)CC3)n2)cc1OC [Compound 6.63] | ≤ 8 µg/mL | > 7.30 |
| COc1cc(Cl)c(Oc2cc(NCc3nc4ccccc4[nH]3)nc(N3CCN(c4ncccn4)CC3)n2)cc1OC [Compound 6.90] | ≤ 8 µg/mL | > 7.30 |
| COc1ccc(Oc2cc(-n3cnc(C)c3)nc(NCc3nc4ccccc4[nH]3)n2)c(Cl)c1 [Compound 5.53] | ≤ 8 µg/mL | – |
| COc1cc(Cl)c(Oc2cc(NCc3nc4ccccc4[nH]3)nc(N3CCN(CCN4CCOCC4)CC3)n2)cc1OC [Compound 6.140] | ≤ 8 µg/mL | > 7.30 |
| COc1ccc(Oc2cc(N3CCN(c4ncccn4)CC3)nc(NCc3nc4ccccc4[nH]3)n2)c(Cl)c1 [Compound 5.70] | ≤ 8 µg/mL | > 7.30 |
| CCN(C(C)=O)C1CCN(c2nc(NCc3nc4ccccc4[nH]3)cc(Oc3ccc(OC)cc3Cl)n2)C1 (centres unmarked) [Compound 6.62] | ≤ 8 µg/mL | > 7.30 |
| COc1ccc(Oc2cc(N3CCC(O)C3)nc(NCc3nc4ccccc4[nH]3)n2)c(Cl)c1 (centres unmarked) [Compound 5.35] | ≤ 8 µg/mL | – |

| Compound | MIC (S. aureus) | pIC50 (S. Aureus MetRS) |
| --- | --- | --- |
| COc1ccc(Oc2cc(N3CCOCC3)nc(NCc3nc4ccccc4[nH]3)n2)c(Cl)c1 [Compound 5.07] | ≤ 8 µg/mL | > 7.30 |
| COc1ccc(Oc2cc(NCc3nc4ccccc4[nH]3)nc(N3CCN(c4ncccn4)CC3)n2)c(Cl)c1 [Compound 6.45] | ≤ 8 µg/mL | > 7.30 |
| COc1cc(Cl)c(Oc2cc(NCc3nc4ccccc4[nH]3)nc(N3CCOCC3)n2)cc1OC [Compound 6.86] | ≤ 8 µg/mL | > 7.30 |
| COc1cc(Cl)c(Oc2cc(NCc3nc4ccccc4[nH]3)nc(N3CCN(c4cnccn4)CC3)n2)cc1OC [Compound 6.93] | ≤ 8 µg/mL | > 7.30 |
| COc1ccc(Oc2cc(NCc3nc4ccccc4[nH]3)nc(N3CCN(C(C)=O)CC3)n2)c(Cl)c1 [Compound 6.19] | ≤ 8 µg/mL | > 7.30 |
| COc1cc(Cl)c(Oc2cc(NCc3nc4ccccc4[nH]3)nc(N3CCN(C(=O)N(C)C)CC3)n2)cc1OC [Compound 6.89] | ≤ 8 µg/mL | > 7.30 |
| O=C1CN(c2cc(Oc3ccc(Cl)cc3Cl)nc(NCc3nc4ccccc4[nH]3)n2)CCN1 [Compound 5.37] | ≤ 8 µg/mL | > 7.30 |
| COc1cc(Cl)c(Oc2cc(NCc3nc4ccccc4[nH]3)nc(N3CCN(c4ccncc4)CC3)n2)cc1OC [Compound 6.95] | ≤ 8 µg/mL | > 7.30 |
| COc1cc(Cl)c(Oc2cc(NCc3nc4ccccc4[nH]3)nc(N3CCN(CCN4CCCC4)CC3)n2)cc1OC [Compound 6.142] | ≤ 8 µg/mL | > 7.30 |
| COc1cc(Cl)c(Oc2cc(NCc3nc4ccccc4[nH]3)nc(N3CCN(C(=O)N4CCOCC4)CC3)n2)cc1OC [Compound 6.134] | ≤ 8 µg/mL | > 7.30 |
| COc1ccnc(N2CCN(c3nc(NCc4nc5ccccc5[nH]4)cc(Oc4cc(OC)c(OC)cc4Cl)n3)CC2)n1 [Compound 6.96] | ≤ 8 µg/mL | > 7.30 |
| COc1ccc(Oc2cc(NCc3nc4ccccc4[nH]3)nc(N3CCN(C(=O)C4CC4)CC3)n2)c(Cl)c1 [Compound 6.48] | ≤ 8 µg/mL | > 7.30 |
| COc1ccc(Oc2cc(NNc3cc(=O)c4ccccc4[nH]3)nc(N(C)C)n2)c(Cl)c1 [Compound 6.06] | ≤ 8 µg/mL | > 7.30 |
| CC(=O)N1CCN(c2nc(NCc3nc4ccccc4[nH]3)cc(Oc3ccc4ncccc4c3Cl)n2)CC1 [Compound 6.150] | ≤ 8 µg/mL | > 7.30 |
| COc1cc(Cl)c(Oc2cc(NCc3nc4ccccc4[nH]3)nc(N3CCN(c4ccccn4)CC3)n2)cc1OC [Compound 6.91] | ≤ 8 µg/mL | > 7.30 |
| CC1CN(c2cc(Oc3ccc(Cl)cc3Cl)nc(NCc3nc4ccccc4[nH]3)n2)CC(C)N1 (centres unmarked) [Compound 5.28] | ≤ 8 µg/mL | > 7.30 |
| COc1cc(Cl)c(Oc2cc(NCc3nc4ccccc4[nH]3)nc(N(C)C)n2)cc1OC [Compound 6.83] | ≤ 8 µg/mL | > 7.30 |
| COc1cc(Cl)c(Oc2cc(NCc3nc4ccccc4[nH]3)nc(N3CCN(c4nccs4)CC3)n2)cc1OC [Compound 6.107] | ≤ 8 µg/mL | > 7.30 |
| COc1cc(Cl)c(Oc2cc(NCc3nc4ccccc4[nH]3)nc(N3CCN(C(=O)N4CCCC4)CC3)n2)cc1OC [Compound 6.144] | ≤ 8 µg/mL | > 7.30 |
| COc1cc(Cl)c(Oc2cc(NCc3nc4ccccc4[nH]3)nc(N3CCN(Cn4ccnc4C)CC3)n2)cc1OC [Compound 6.143] | ≤ 8 µg/mL | > 7.30 |
| COc1cc(Cl)c(Oc2cc(NCc3nc4ccccc4[nH]3)nc(N3CCC(N4CCOCC4)CC3)n2)cc1OC [Compound 6.138] | ≤ 8 µg/mL | > 7.30 |
| COc1cc(Cl)c(Oc2cc(NCc3nc4ccccc4[nH]3)nc(N3CCN(C(=O)C4CC4)CC3)n2)cc1OC [Compound 6.88] | ≤ 8 µg/mL | > 7.30 |
